# Measurements from publication PMC5462828 (Scientific Reports, 2017).
# “Also recorded” adds a separate entry of the source.
# Experiments:
# [1] = test system: T1, RXFP1 and GαoB; test: Real-time kinetic BRET, RXFP1-Rluc8 / GαoB; format: cell-based, human; conditions: HEK293T co-expressing RXFP1-Rluc8, Gγ2-Venus, Gβ1, GαoB; H2 relaxin 100 nM, ML290 100 nM or 10 μM
# T1 construct: forward primer encodes M-D-S-K-G-S-S, not the native RXFP1 start (N); expressed in transfected cells; host or cells: HEK293T cells stably expressing RXFP1-Rluc8, transiently co-transfected with the G protein subunits
# Procedure: HEK293 cell were seeded in 6-well plates at a density of 600,000 cells per well and transfected with constructs encoding the tagged receptors and signalling proteins. 24 h later cells were harvested in HEPES-buffered phenol red-free medium containing 5% FBS and plated out in a white 96-well plate (Nunc) that was incubated at 37 °C under 5% CO2. BRET assays were performed 48 h after transfection as described previously, [52]. Medium was replaced with phenol-red-free-DMEM supplemented with 5% FBS plus 5 μM coelenterazine h. BRET measurements were made at 37 °C using the PHERAstar Omega plate reader with Omega software (BMG LABTECH, Germany). Filtered light emissions were simultaneously measured in each of the “donor wavelength window” (475 ± 15 nm for Rluc8 with coelenterazine h) and “acceptor wavelength window” (535 ± 15 nm for Venus). Cells were assayed before and after treatment with ligands or 5% FBS phenol-red-free-DMEM medium containing 0.01% w/v BSA (vehicle). The BRET signal was calculated as previously described.
# [2] = test system: RXFP1; test: ERK1/2 phosphorylation (Surefire) in human primary vascular cells and cardiac fibroblasts; format: cell-based; conditions: HUAEC
# Procedure: (§1) p-ERK1/2, p-p38MAPK and p-JNK1/2 was measured using the Surefire ERK, p38 and JNK kits (TGR BioSciences, Australia) as described previously, [16]. Briefly, HEK-RXFP1 cells were plated into 96-well plates (5 × 10^4 cells/well) and primary cells grown in 24-well plates (1 × 10^5 cells/well) overnight to achieve a confluent monolayer. Prior to stimulation, HEK293 cells were serum-starved with DMEM containing 0.5% (v/v) FBS and primary cells in M199 medium for 4–6 hours. […] Levels of p-ERK1/2, p-p38MAPK and p-JNK1/2/3 were detected as per manufacturer’s instructions (Perkin-Elmer, Australia).
# [3] = target: T2, RXFP1 (Homo sapiens, UniProt Q9HBX9); test: cAMP accumulation in human primary vascular cells and cardiac fibroblasts; format: cell-based; conditions: for Emax: 30 min
# T2 sequence (Q9HBX9 1-757): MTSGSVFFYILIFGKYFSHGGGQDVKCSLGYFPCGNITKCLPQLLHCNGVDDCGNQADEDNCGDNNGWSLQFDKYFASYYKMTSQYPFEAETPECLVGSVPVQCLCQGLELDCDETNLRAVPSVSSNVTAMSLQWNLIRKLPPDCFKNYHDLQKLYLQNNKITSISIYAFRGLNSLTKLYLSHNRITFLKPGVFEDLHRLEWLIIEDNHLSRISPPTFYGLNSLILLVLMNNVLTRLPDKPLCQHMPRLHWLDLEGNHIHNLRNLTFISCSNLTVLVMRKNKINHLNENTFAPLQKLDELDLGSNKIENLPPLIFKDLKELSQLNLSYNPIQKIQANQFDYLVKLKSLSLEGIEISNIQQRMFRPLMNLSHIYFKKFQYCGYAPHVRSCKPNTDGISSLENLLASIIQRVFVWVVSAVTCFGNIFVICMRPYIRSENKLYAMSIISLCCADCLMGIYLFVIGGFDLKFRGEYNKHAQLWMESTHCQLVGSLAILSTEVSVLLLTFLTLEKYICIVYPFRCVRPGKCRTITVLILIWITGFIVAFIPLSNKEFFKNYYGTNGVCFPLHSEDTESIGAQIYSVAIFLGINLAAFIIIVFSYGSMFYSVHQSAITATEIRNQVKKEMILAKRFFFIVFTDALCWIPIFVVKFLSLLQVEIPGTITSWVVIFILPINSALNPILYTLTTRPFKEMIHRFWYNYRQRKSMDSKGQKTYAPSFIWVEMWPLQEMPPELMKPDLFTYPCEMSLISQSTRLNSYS
# Procedure: (§2) cAMP and cGMP accumulation was determined as previously described, [16]. Briefly, HEK293 cells were plated in 96-well plates (5 × 10^4 cells/well) and human primary cells were plated into 24-well plates (1 × 10^5 cells/well) and grown overnight to achieve a confluent monolayer. Prior to stimulation, HEK cells were serum-starved in DMEM containing 0.5% FBS v/v and primary cells were serum-starved in M199 medium for 4–6 hours. Where appropriate, cells were pre-incubated with mSIRK (5 μM, 30 min), mSIRK control peptide L9A (5 μM, 30 min), gallein (100 μM, 30 min), Wortmannin (100 nM, 30 min), NF023 (10 μM, 30 min) and NF449 (10 μM, 30 min). Levels of cAMP and cGMP were detected according to the manufacturer’s instructions (Perkin-Elmer, Australia).
# [4] = test system: RXFP1; test: as above; format: cell-based; conditions: HUAEC, cells known not to express cell surface RXFP1; 30 min
# Procedure: as §2
# [5] = test system: p-Smad2; test: Smad2 phosphorylation assay in human cardiac fibroblasts; format: cell-based; conditions: 72 hours
# Procedure: (§3) Cells were serum-starved in M199 medium for 24 hours prior sample collection. Cells were used between passages 1–4, while all experiments were performed four separate times in duplicate. Levels of p-Smad2 and p-Smad3 were detected using Sure-fire kits according to the manufacturer’s instructions (Perkin-Elmer, Australia).
# [6] = test system: p-Smad3; test: Smad3 phosphorylation assay in human cardiac fibroblasts; format: cell-based; conditions: 72 hours
# Procedure: as §3
# [7] = test system: RXFP3; design: method as in PMID 23764525; conditions: cited from earlier work
# [8] = test system: AVPR1B; design: method as in PMID 23764525; conditions: cited from earlier work
# [9] = test system: monkey RXFP1; design: method as in PMID 26866459; conditions: cited from earlier work
# [10] = test system: pig RXFP1; design: method as in PMID 26866459; conditions: cited from earlier work
# [11] = test system: mouse RXFP1; conditions: cited from earlier work
# [12] = target: T2, RXFP1; test: p38MAPK phosphorylation (Surefire) in HEK-RXFP1 cells; format: cell-based; design: expressed in transfected cells; host or cells: HEK293T / HEK293 cells stably expressing RXFP1 (HEK-RXFP1)
# Procedure: as §1
# [13] = HCFs not treated with TGF-β1, H2 relaxin 0.1 μM, ML290 1 μM
# [14] = HCFs, TGF-β1 2 ng/ml + H2 relaxin 0.1 μM or ML290 1 μM
smiles,measurement,setting,value
"CC(C)Oc1ccccc1C(=O)Nc1ccccc1C(=O)Nc1cccc(S(=O)(=O)C(F)(F)F)c1 [ML290, 2-Isopropoxy-N-(2-(3-(trifluoromethylsulfonyl)phenylcarbamoyl)phenyl) benzamide]","ligand-induced BRET, RXFP1 - GαoB interaction",[1],promoted interactions; also recorded: moved in the opposite direction to that to H2 relaxin
same,ERK1/2 phosphorylation,[2],did not cause ERK1/2 phosphorylation
same,Emax,"[3]; HUVEC, read-out: cAMP accumulation efficacy (Emax), HUVEC",11.7%
same,"potency for cAMP accumulation, less potent than H2 relaxin",[3]; human primary vascular cells,3 orders of magnitude
same,Emax,"[3]; read-out: cAMP accumulation efficacy (Emax), HCAEC",17.9%
same,Emax,"[3]; read-out: cAMP accumulation efficacy (Emax), HUASMC",11.9%
same,cAMP accumulation,[4],did not cause cAMP accumulation
same,effect on p-Smad2 levels,[5]; [13],neither H2 relaxin (0.1 μM) nor ML290 (1 μM) significantly affected
same,p-Smad2 in TGF-β1-stimulated cells,[5]; [14],1.58 ± 0.34 fold/basal
same,effect on p-Smad3 levels,[6]; [13],neither H2 relaxin (0.1 μM) nor ML290 (1 μM) significantly affected
same,p-Smad3 in TGF-β1-stimulated cells,[6]; [14],1.15 ± 0.05 fold/basal
same,action at RXFP3,[7],little or no action
same,action at AVPR1B,[8],little or no action
same,agonist action at monkey RXFP1,[9],activates
same,agonist action at pig RXFP1,[10],activates
same,action at mouse RXFP1,[11],antagonist actions
same,agonist action at the mouse orthologue of RXFP1,[11],no agonist actions
same,Emax,"[12]; 15 min, read-out: p-p38MAPK efficacy (Emax) (converted)",16.9%
same,"p38MAPK phosphorylation, time course","[12]; up to 45 min, H2 relaxin 100 nM, ML290 100 nM or 10 μM",increased p38MAPK phosphorylation
